According to patent US8574563B2 (Bristol-Myers Squibb Company, priority 2006, dated 2013):
Read-outs that look alike come from different tables or passages of the source.

Tested on: HCV 1b-377-neo replicon cells
Test: HCV replicon assay, HCV 1b-377-neo replicon cells (1b FRET)
Format: cell-based, Hepatitis C virus genotype 1b
Details: HCV 1b-377-neo replicon cells, HCV 1b genotype, read-out: EC50 range against HCV 1b (Table 2, Range)
Method in brief: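 Compounds tested in HCV genotype 1b-377-neo replicon cells with a FRET read-out. Cells resistant to a reference NS5A inhibitor through a Y2065H NS5A mutation were run alongside wild-type cells.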

SMILES	EC50 (Hepatitis C virus) [nM]	EC50 [nM]
COC(=O)N[C@@H](C(=O)N1CCC[C@H]1c1ncc(-c2ccc(-c3ccc(-c4cnc([C@@H]5CCCN5C(=O)[C@H](NC(=O)OC)c5ccccc5)[nH]4)cn3)cc2)[nH]1)c1ccccc1 [Example 134, methyl ((1R)-2-((2S)-2-(5-(6-(4-(2-((2S)-1-((2R)-2-((methoxycarbonyl)amino)-2-phenylacetyl)-2-pyrrolidinyl)-1H-imidazol-5-yl)phenyl)-3-pyridinyl)-1H-imidazol-2-yl)-1-pyrrolidinyl)-2-oxo-1-phenylethyl)carbamate]	0.001 to 0.999	
CO[C@@H](C(=O)N1CCC[C@H]1c1ncc(-c2ccc(-c3ccc(-c4cnc([C@@H]5CCCN5C(=O)[C@H](OC)c5ccccc5)[nH]4)cn3)cc2)[nH]1)c1ccccc1 [Example 135, 5-(2-((2S)-1-((2R)-2-methoxy-2-phenylacetyl)-2-pyrrolidinyl)-1H-imidazol-5-yl)-2-(4-(2-((2S)-1-((2R)-2-methoxy-2-phenylacetyl)-2-pyrrolidinyl)-1H-imidazol-5-yl)phenyl)pyridine]	0.001 to 0.999	
Cc1cc(-c2cnc([C@@H]3CCCN3C(=O)[C@@H](c3ccccc3)N(C)C)[nH]2)ccc1-c1ccc(-c2cnc([C@@H]3CCCN3C(=O)[C@@H](c3ccccc3)N(C)C)[nH]2)cn1 [Example 136, (1R)-2-((2S)-2-(5-(6-(4-(2-((2S)-1-((2R)-2-(dimethylamino)-2-phenylacetyl)-2-pyrrolidinyl)-1H-imidazol-5-yl)-2-methylphenyl)-3-pyridinyl)-1H-imidazol-2-yl)-1-pyrrolidinyl)-N,N-dimethyl-2-oxo-1-phenylethanamine]	0.001 to 0.999	
COC(=O)N[C@@H](C(=O)N1CCC[C@H]1c1ncc(-c2ccc(-c3ccc(-c4cnc([C@@H]5CCCN5C(=O)[C@H](NC(=O)OC)c5ccccc5)[nH]4)cc3C)nc2)[nH]1)c1ccccc1 [Example 138]		0.001 to 0.999
CC(=O)N[C@@H](C(=O)N1CCC[C@H]1c1ncc(-c2ccc(-c3ccc(-c4cnc([C@@H]5CCCN5C(=O)[C@H](NC(C)=O)c5ccccc5)[nH]4)cn3)cc2)[nH]1)c1ccccc1 [Example 139, N-((1R)-2-((2S)-2-(5-(6-(4-(2-((2S)-1-((2R)-2-acetamido-2-phenylacetyl)-2-pyrrolidinyl)-1H-imidazol-5-yl)phenyl)-3-pyridinyl)-1H-imidazol-2-yl)-1-pyrrolidinyl)-2-oxo-1-phenylethyl)acetamide]	0.001 to 0.999	
COC(=O)N[C@@H](C(=O)N1CCC[C@H]1c1ncc(-c2ccc(-c3ccc(-c4cnc([C@@H]5CCCN5C(=O)[C@@H](c5ccccc5)N(C)C)[nH]4)cn3)cc2)[nH]1)c1ccccc1 [Example 140, methyl ((1R)-2-((2S)-2-(5-(4-(5-(2-((2S)-1-((2R)-2-(dimethylamino)-2-phenylacetyl)-2-pyrrolidinyl)-1H-imidazol-5-yl)-2-pyridinyl)phenyl)-1H-imidazol-2-yl)-1-pyrrolidinyl)-2-oxo-1-phenylethyl)carbamate]	0.001 to 0.999	
COC(=O)N[C@@H](C(=O)N1CCC[C@H]1c1ncc(-c2ccc(-c3ccc(-c4cnc([C@@H]5CCCN5C(=O)[C@H]5CCCO5)[nH]4)cn3)cc2)[nH]1)c1ccccc1 [Example 141, methyl ((1R)-2-oxo-1-phenyl-2-((2S)-2-(5-(4-(5-(2-((2S)-1((2R)-tetrahydro-2-furanylcarbonyl)-2-pyrrolidinyl)-1H-imidazol-5-yl)-2-pyridinyl)phenyl)-1H-imidazol-2-yl)-1-pyrrolidinyl)ethyl)carbamate]	0.001 to 0.999	
COC(=O)N[C@@H](C(=O)N1CCC[C@H]1c1ncc(-c2ccc(-c3ccc(-c4cnc([C@@H]5CCCN5C(=O)C5CCN(C)CC5)[nH]4)cn3)cc2)[nH]1)c1ccccc1 [Example 142, methyl ((1R)-2-((2S)-2-(5-(4-(5-(2-((2S)-1-((1-methyl-4-piperidinyl)carbonyl)-2-pyrrolidinyl)-1H-imidazol-5-yl)-2-pyridinyl)phenyl)-1H-imidazol-2-yl)-1-pyrrolidinyl)-2-oxo-1-phenylethyl)carbamate]	1 to 99	
COC(=O)N[C@@H](C(=O)N1CCC[C@H]1c1ncc(-c2ccc(-c3ccc(-c4cnc([C@@H]5CCCN5C(=O)Cc5cccnc5)[nH]4)cn3)cc2)[nH]1)c1ccccc1 [Example 143, methyl ((1R)-2-oxo-1-phenyl-2-((2S)-2-(5-(4-(5-(2-((2S)-1-(3-pyridinylacetyl)-2-pyrrolidinyl)-1H-imidazol-5-yl)-2-pyridinyl)phenyl)-1H-imidazol-2-yl)-1-pyrrolidinyl)ethyl)carbamate]	0.001 to 0.999	
COC(=O)N[C@@H](C(=O)N1CCC[C@H]1c1ncc(-c2ccc(-c3ccc(-c4cnc([C@@H]5CCCN5C(=O)N5CCOCC5)[nH]4)cn3)cc2)[nH]1)c1ccccc1 [Example 144, methyl ((1R)-2-((2S)-2-(5-(4-(5-(2-((2S)-1-(4-morpholinylcarbonyl)-2-pyrrolidinyl)-1H-imidazol-5-yl)-2-pyridinyl)phenyl)-1H-imidazol-2-yl)-1-pyrrolidinyl)-2-oxo-1-phenylethyl)carbamate]	0.001 to 0.999	
COC(=O)N[C@@H](C(=O)N1CCC[C@H]1c1ncc(-c2ccc(-c3ccc(-c4cnc([C@@H]5CCCN5C(=O)[C@H](NC(=O)OC)c5ccccc5)[nH]4)cn3)nc2)[nH]1)c1ccccc1 [Example 145, dimethyl (2,2′-bipyridine-5,5′-diylbis(1H-imidazole-5,2-diyl(2S)-2,1-pyrrolidinediyl((1R)-2-oxo-1-phenyl-2,1-ethanediyl)))biscarbamate]	0.001 to 0.999	
CN(C)[C@@H](C(=O)N1CCC[C@H]1c1ncc(-c2ccc(-c3ccc(-c4cnc([C@@H]5CCCN5C(=O)[C@@H](c5ccccc5)N(C)C)[nH]4)nc3)cc2)[nH]1)c1ccccc1 [Example 146, (1R)-2-((2S)-2-(5-(5-(4-(2-((2S)-1-((2R)-2-(dimethylamino)-2-phenylacetyl)-2-pyrrolidinyl)-1H-imidazol-5-yl)phenyl)-2-pyridinyl)-1H-imidazol-2-yl)-1-pyrrolidinyl)-N,N-dimethyl-2-oxo-1-phenylethanamine]	0.001 to 0.999	
COC(=O)N[C@@H](C(=O)N1CCC[C@H]1c1ncc(-c2ccc(-c3ccc(-c4cnc([C@@H]5CCCN5C(=O)[C@H](NC(=O)OC)c5ccccc5)[nH]4)nc3)cc2)[nH]1)c1ccccc1 [Example 147, methyl ((1R)-2-((2S)-2-(5-(5-(4-(2-((2S)-1-((2R)-2-((methoxycarbonyl)amino)-2-phenylacetyl)-2-pyrrolidinyl)-1H-imidazol-5-yl)phenyl)-2-pyridinyl)-1H-imidazol-2-yl)-1-pyrrolidinyl)-2-oxo-1-phenylethyl)carbamate]	0.001 to 0.999	
CN(C)[C@@H](C(=O)N1CSC[C@H]1c1ncc(-c2ccc(-c3ccc(-c4cnc([C@@H]5CSCN5C(=O)[C@@H](c5ccccc5)N(C)C)[nH]4)cc3)cc2)[nH]1)c1ccccc1 [Example 148, (1R,1′R)-2,2′-(4,4′-biphenyldiylbis(1H-imidazole-5,2-diyl(4R)-1,3-thiazolidine-4,3-diyl))bis(N,N-dimethyl-2-oxo-1-phenylethanamine)]	1 to 99	
COC(=O)N[C@@H](C(=O)N1CSC[C@H]1c1ncc(-c2ccc(-c3ccc(-c4cnc([C@@H]5CSCN5C(=O)[C@H](NC(=O)OC)c5ccccc5)[nH]4)cc3)cc2)[nH]1)c1ccccc1 [Example 149, dimethyl (4,4′-biphenyldiylbis(1H-imidazole-5,2-diyl(4R)-1,3-thiazolidine-4,3-diyl((1R)-2-oxo-1-phenyl-2,1-ethanediyl)))biscarbamate]	0.001 to 0.999	
O=C([C@H]1CCCO1)N1CSC[C@H]1c1ncc(-c2ccc(-c3ccc(-c4cnc([C@@H]5CSCN5C(=O)[C@H]5CCCO5)[nH]4)cc3)cc2)[nH]1 [Example 150, (4R,4′R)-4,4′-(4,4′-biphenyldiylbis(1H imidazole-5,2-diyl))bis(3-((2R)-tetrahydro-2-furanylcarbonyl)-1,3-thiazolidine)]	1 to 99	
CN(C)[C@@H](C(=O)N1CCC[C@H]1c1ncc(-c2ccc(-c3ncc(-c4cnc([C@@H]5CCCN5C(=O)[C@@H](c5ccccc5)N(C)C)[nH]4)cn3)cc2)[nH]1)c1ccccc1 [Example 152j-1, (1R)-2-((2S)-2-(5-(2-(4-(2-((2S)-1-((2R)-2-(dimethylamino)-2-phenylacetyl)-2-pyrrolidinyl)-1H-imidazol-5-yl)phenyl)-5-pyrimidinyl)-1H-imidazol-2-yl)-1-pyrrolidinyl)-N,N-dimethyl-2-oxo-1-phenylethanamine]	1 to 99	
COC(=O)N[C@@H](C(=O)N1CCC[C@H]1c1ncc(-c2ccc(-c3ncc(-c4cnc([C@@H]5CCCN5C(=O)[C@H](NC(=O)OC)c5ccccc5)[nH]4)cn3)cc2)[nH]1)c1ccccc1 [Example 152j-2, methyl ((1R)-2-((2S)-2-(5-(2-(4-(2-((2S)-1-((2R)-2-((methoxycarbonyl)amino)-2-phenylacetyl)-2-pyrrolidinyl)-1H-imidazol-5-yl)phenyl)-5-pyrimidinyl)-1H-imidazol-2-yl)-1-pyrrolidinyl)-2-oxo-1-phenylethyl)carbamate]	0.001 to 0.999	
COC(=O)N[C@@H](C(=O)N1CCC[C@H]1c1ncc(-c2ccc(-c3ncc(-c4cnc([C@@H]5CCCN5C(=O)Cc5cccnc5)[nH]4)cn3)cc2)[nH]1)c1ccccc1 [Example 152j-3, methyl ((1R)-2-oxo-1-phenyl-2-((2S)-2-(5-(4-(5-(2-((2S)-1-(3-pyridinylacetyl)-2-pyrrolidinyl)-1H-imidazol-5-yl)-2-pyrimidinyl)phenyl)-1H-imidazol-2-yl)-1-pyrrolidinyl)ethyl)carbamate]	0.001 to 0.999	
O=C([C@@H](c1ccccc1)N1CCCCC1)N1CCC[C@H]1c1ncc(-c2ccc(-c3ncc(-c4cnc([C@@H]5CCCN5C(=O)[C@@H](c5ccccc5)N5CCCCC5)[nH]4)cn3)cc2)[nH]1 [Example 152j-5, 5-(2-((2S)-1-((2R)-2-phenyl-2-(1-piperidinyl)acetyl)-2-pyrrolidinyl)-1H-imidazol-5-yl)-2-(4-(2-((2S)-1-((2R)-2-phenyl-2-(1-piperidinyl)acetyl)-2-pyrrolidinyl)-1H-imidazol-4-yl)phenyl)pyrimidine]	0.001 to 0.999	
